Measurements as given in US4606856A, “[Des-1-amino, 8-glycine]calcitonin” (priority 1985, dated 1986).

What was measured:
[1] = tested on: serum calcium concentration; experiment: Biological assay of calcitonin analogs in vivo: reduction of serum calcium concentration, 2×2 parallel line assay; conditions: rats, subcutaneous injection, serum calcium 1 hour later, compared with synthetic salmon calcitonin standard
Method: Rats were divided into four groups of seven animals, and each group was assigned at random to a dose of standard or test solution. Low and high doses were chosen from the linear portion of the dose-response curve. For the salmon calcitonin standard, the values were 0.7 and 2.1 ng. peptide/100 g. body weight (BW). This dose approximates 3 and 9 MU/100 g. BW. Peptides were given by subcutaneous injection (0.2 ml/100 g. BW) and blood was withdrawn 1 hour later for serum calcium determination. Sera are processed and analyzed within two hours of collection. Results were analyzed within two hours of collection. Results were analyzed by a 2×2 parallel line assay [Gaddum, J. H., J. Pharm.

[2] = tested on: serum calcium concentration; conditions: standard salmon calcitonin used in the assay; cited from earlier work

## [Des-1-Amino, 8-Glycine]salmon calcitonin [[Des-1-Amino, Gly^8]SCT]
[1]
  biological potency: 4750 IU/mg

## Salmon calcitonin [standard salmon calcitonin]
[2]
  biological potency of the standard, independently determined: greater than 4,000 IU/mg
